# Target: VP35 (EBOV VP35) (Ebola virus - Mayinga, Zaire, 1976, UniProt Q05127)
# Assay: biochemical
# Type: binding
# Sequence of VP35 (EBOV VP35) (Q05127 whole entry, looked up): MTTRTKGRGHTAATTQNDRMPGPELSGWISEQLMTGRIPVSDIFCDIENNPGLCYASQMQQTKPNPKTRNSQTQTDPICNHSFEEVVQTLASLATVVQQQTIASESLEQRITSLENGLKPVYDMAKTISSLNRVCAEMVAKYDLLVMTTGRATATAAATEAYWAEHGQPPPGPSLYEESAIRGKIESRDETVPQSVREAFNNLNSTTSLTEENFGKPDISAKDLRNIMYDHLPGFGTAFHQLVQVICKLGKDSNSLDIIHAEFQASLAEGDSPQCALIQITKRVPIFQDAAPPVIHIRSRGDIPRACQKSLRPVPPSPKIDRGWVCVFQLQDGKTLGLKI
smiles,measurement,value
"Cc1oc(C)c(S(N)(=O)=O)c1C(=O)O [SFC, 2,5-Dimethyl-4-sulfamoyl furan-3-carboxylic acid]",Kd,~375 nM
